Laboratory results as given in patent US20200031873A1, “REPURPOSING CELL PENETRATING PEPTIDES AND THEIR NOVEL DERIVATIVES AND IOPROMIDE AND IODO-ARYL CARBONATES FOR TREATMENT OF SENESCENCE-RELATED DISEASES AND DISORDERS” (Eternans Limited, priority 2018, published 2020).
Entries after “also recorded” stand apart in the source; their conditions may differ. Where a SMILES comes first, the peptide text is derived from it.

Assays:
BALB/c mice = test: Acute Sytemic Toxicity Test (ISO 10993-11); format: in vivo; set-up: hematological parameters, AST, ALT, ALP levels and gross pathology: dose or concentration left out as unconfirmed
Procedure: Senolytic Peptides were evaluated for toxicity according to Acute Sytemic Toxicity Test (ISO 10993-11). This study was performed in strict accordance with the protocol approved by the TUBITAK-MAM Animal Ethics Committee. All the mice used in this study were of a BALB/c background at 8-12 weeks of age. All mice were kept in group housing until the start of the experiment after which they were placed in separate cages (5 mice per cage). […] Control and Senolytic Peptide (SEQ ID NO: 2) injected mice were sacrificed 24 hours later for pathological examination. […] Blood samples were subsequently collected for determination and analysis of hematological and biochemical parameters. Plasma alanine aminotransferase (ALT), aspartate aminotransferase (AST), alkaline phosphatase (ALP) activities and blood urea, glucose, triglyceride levels were determined, inter alia, full hematological parameters.

[1] = system: senescent and non-senescent WI-38 fibroblasts; format: cell-based, human; conditions: total doses 0 to 100 μM on 3 consecutive days, read after 7 days, listed as SEQ ID NO: 11
Procedure: WI-38 cells (ATCC # CCL-75, a diploid primary human fibroblast adherent cell line derived from fetal lung tissue) were treated with a chemotherapy agent, 100 nM Doxorubicin twice every other day to induce senescence. […] Later these cells were used for experiments comparing them to their non-Doxorubicin (non-senescent) treated counterparts. Senescent and non-senescent WI-38 fibroblasts were plated for XTT viability assays. 7000 senescent (obtained as described above) and 2000 non-senescent WI-38 fibroblasts were plated in 96-well plates incubated. The cells were treated with mock (PBS) or the Senolytic Peptide (SEQ ID NO: 11) at total doses ranging from 0 to 100 μM. The mock and peptide treatments were carried out for 3 consecutive days (24, 48 and 72 hours) after plating. After treatment period, the cells were incubated for 7 days until XTT-based viability was analyzed according to the manufacturer's instructions. […] The Senolytic Peptide (SEQ ID NO: 2) was ordered from Chinese Peptide Company with TFA removal.

Compound | toxicity to the physical appearance of the mice (BALB/c mice; intravenous single injection, 1, 10, 50 and 100 mg/kg, within 24 hours) | hematological parameters, AST, ALT, ALP levels and gross pathology (BALB/c mice; intravenous single injection, 24 hours, even at higher doses) | viability of senescent vs non-senescent cells (XTT) [1]
N=C(N)NCCC[C@H](NC(=O)[C@H](CCCNC(=N)N)NC(=O)[C@H](CCCNC(=N)N)NC(=O)[C@H](CCC(N)=O)NC(=O)[C@H](CCCNC(=N)N)NC(=O)[C@H](CCCNC(=N)N)NC(=O)[C@H](CCCCN)NC(=O)[C@H](CCCCN)NC(=O)[C@H](CCCNC(=N)N)NC(=O)CNC(=O)[C@H](Cc1ccc(O)cc1)NC(=O)[C@H](CCCNC(=N)N)NC(=O)[C@H](CCCNC(=N)N)NC(=O)[C@H](CCCNC(=N)N)NC(=O)[C@H](CCC(N)=O)NC(=O)[C@H](CCCNC(=N)N)NC(=O)[C@H](CCCNC(=N)N)NC(=O)[C@H](CCCCN)NC(=O)[C@H](CCCCN)NC(=O)[C@H](CCCNC(=N)N)NC(=O)CNC(=O)[C@H](Cc1ccc(O)cc1)NC(=O)[C@H](CCCNC(=N)N)NC(=O)[C@H](CCCNC(=N)N)NC(=O)[C@H](CCCNC(=N)N)NC(=O)[C@H](CCC(N)=O)NC(=O)[C@H](CCCNC(=N)N)NC(=O)[C@H](CCCNC(=N)N)NC(=O)[C@H](CCCCN)NC(=O)[C@H](CCCCN)NC(=O)[C@H](CCCNC(=N)N)NC(=O)CNC(=O)[C@@H](N)Cc1ccc(O)cc1)C(=O)O [ID 2] (H-YGRKKRRQRRRYGRKKRRQRRRYGRKKRRQRRR-OH; N-terminus and C-terminus assumed) | No toxicity to the physical appearance of the mice was observed | no toxicity | –
TRQARRNRRRRWRERQR [ID 11] | – | – | selective decrease in the viability of senescent cells but not non-senescent cells; also recorded: selectively decreased the viability of senescent cells but not non-senescent cells
